Measured values published in patent US20210045385A1, “PYRIDAZINONE-SUBSTITUTED KETOXIMES AS HERBICIDES” (FMC Corporation, priority 2018, published 2021).

Tests used:
Format in all cases: in vivo
[1] = test system: Italian ryegrass (Lolium mutiflorum); experiment: Test C preemergence, visual plant response rating; details: Test C, 0 is no effect, 100 is complete control
In short: (§1)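 Visual injury on a 0 (no effect) to 100 (complete control) scale versus untreated controls, scored approximately 10 d after treatment under greenhouse conditions. Treatments used surfactant-containing non-phytotoxic solvent formulations, sprayed onto loam–sand soil preemergence or onto one- to two-leaf plants 2–10 cm tall postemergence.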

[2] = test system: barnyardgrass (Echinochloa crus-galli); experiment: Test C preemergence, visual plant response rating; details: Test C, 0 is no effect, 100 is complete control
In short: as §1

[3] = test system: foxtail, giant (giant foxtail, Setaria faberi); experiment: Test C preemergence, visual plant response rating; details: Test C, 0 is no effect, 100 is complete control
In short: as §1

kochia (Bassia scoparia) [4] = experiment: Test C preemergence, visual plant response rating; details: Test C, 0 is no effect, 100 is complete control
In short: as §1

[5] = test system: pigweed (Amaranthus retroflexus); experiment: Test C preemergence, visual plant response rating; details: Test C, 0 is no effect, 100 is complete control
In short: as §1

[6] = test system: ragweed (common ragweed, Ambrosia artemisiifolia); experiment: Test C preemergence, visual plant response rating; details: Test C, 0 is no effect, 100 is complete control
In short: as §1

[7] = test system: Italian ryegrass (Lolium mutiflorum); experiment: Test C postemergence, visual plant response rating
In short: as §1

[8] = test system: barnyardgrass (Echinochloa crus-galli); experiment: Test C postemergence, visual plant response rating
In short: as §1

[9] = test system: blackgrass (Alopecurus myosuroides); experiment: Test C postemergence, visual plant response rating
In short: as §1

corn (Zea mays) = experiment: Test C postemergence, visual plant response rating
In short: as §1

[10] = test system: foxtail, giant (giant foxtail, Setaria faberi); experiment: Test C postemergence, visual plant response rating
In short: as §1

[11] = test system: galium (catchweed bedstraw, Galium aparine); experiment: Test C postemergence, visual plant response rating
In short: as §1

kochia (Bassia scoparia) [12] = experiment: Test C postemergence, visual plant response rating
In short: as §1

[13] = test system: pigweed (Amaranthus retroflexus); experiment: Test C postemergence, visual plant response rating
In short: as §1

[14] = test system: ragweed (common ragweed, Ambrosia artemisiifolia); experiment: Test C postemergence, visual plant response rating
In short: as §1

[15] = test system: wheat (Triticum aestivum); experiment: Test C postemergence, visual plant response rating
In short: as §1

[16] = test system: barnyardgrass (Echinochloa crus-galli); experiment: Test D flooded paddy test, visual plant response rating; details: 250 g ai/ha, scale 0 to 100 (0 no effect, 100 complete control), 13 to 15 d
In short: (§2)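 Rating is visual, on a 0 (no effect) to 100 (complete control) scale versus controls, taken 13 to 15 d after treatment in a greenhouse. Treatment went into paddy water kept 3 cm above the soil surface, with plants at the 2-leaf stage.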

[17] = test system: duck salad (Heteranthera limosa); experiment: as above; details: 250 g ai/ha, scale 0 to 100 (0 no effect, 100 complete control), 13 to 15 d
In short: as §2

rice (Oryza sativa) = experiment: as above; details: 250 g ai/ha, scale 0 to 100 (0 no effect, 100 complete control), 13 to 15 d
In short: as §2

[18] = test system: sedge umbrella (small-flower umbrella sedge, Cyperus difformis); experiment: as above; details: 250 g ai/ha, scale 0 to 100 (0 no effect, 100 complete control), 13 to 15 d
In short: as §2

[19] = Test C, postemergence, 125 g ai/ha

SMILES | Ryegrass, Italian plant response rating (0 to 100 scale) ([1]; 31 g ai/ha) | Ryegrass, Italian plant response rating (0 to 100 scale) ([1]; 125 g ai/ha) | Barnyardgrass plant response rating (0 to 100 scale) ([2]; 31 g ai/ha) | Barnyardgrass plant response rating (0 to 100 scale) ([2]; 125 g ai/ha) | Foxtail, Giant plant response rating (0 to 100 scale) ([3]; 31 g ai/ha) | Foxtail, Giant plant response rating (0 to 100 scale) ([3]; 125 g ai/ha) | Kochia plant response rating (0 to 100 scale) (kochia (Bassia scoparia) [4]; 31 g ai/ha) | Kochia plant response rating (0 to 100 scale) (kochia (Bassia scoparia) [4]; 125 g ai/ha) | Pigweed plant response rating (0 to 100 scale) ([5]; 31 g ai/ha) | Pigweed plant response rating (0 to 100 scale) ([5]; 125 g ai/ha) | Ragweed plant response rating (0 to 100 scale) ([6]; 31 g ai/ha) | Ragweed plant response rating (0 to 100 scale) ([6]; 125 g ai/ha) | Ryegrass, Italian plant response rating (0 to 100 scale) ([7]; Postemergence, 31 g ai/ha) | Ryegrass, Italian plant response rating (0 to 100 scale) [7, 19] | Barnyardgrass plant response rating (0 to 100 scale) ([8]; Postemergence, 31 g ai/ha) | Barnyardgrass plant response rating (0 to 100 scale) [8, 19] | Blackgrass plant response rating (0 to 100 scale) ([9]; Postemergence, 31 g ai/ha) | Blackgrass plant response rating (0 to 100 scale) [9, 19] | Corn plant response rating (0 to 100 scale) (corn (Zea mays); Postemergence, 31 g ai/ha) | Corn plant response rating (0 to 100 scale) (corn (Zea mays); [19]) | other results
CCO/N=C(/c1c(O)c(Cl)nn(C)c1=O)c1ccc(F)c2ccccc12 [Compound 211] | 30 | 80 | 50 | 90 | 70 | 90 | 0 | 60 | 70 | 90 | 40 | 100 | 30 | 80 | 30 | 70 | 30 | 30 | 30 | 20 | Foxtail, Giant plant response rating (0 to 100 scale) ([10]; Postemergence, 31 g ai/ha): 60; Foxtail, Giant plant response rating (0 to 100 scale) [10, 19]: 90; Galium plant response rating (0 to 100 scale) ([11]; Postemergence, 31 g ai/ha): 100; Galium plant response rating (0 to 100 scale) [11, 19]: 100; Kochia plant response rating (0 to 100 scale) (kochia (Bassia scoparia) [12]; Postemergence, 31 g ai/ha): 50; Kochia plant response rating (0 to 100 scale) (kochia (Bassia scoparia) [12]; [19]): 90; Pigweed plant response rating (0 to 100 scale) ([13]; Postemergence, 31 g ai/ha): 70; Pigweed plant response rating (0 to 100 scale) [13, 19]: 100; Ragweed plant response rating (0 to 100 scale) ([14]; Postemergence, 31 g ai/ha): 80; Ragweed plant response rating (0 to 100 scale) [14, 19]: 80; Wheat plant response rating (0 to 100 scale) ([15]; Postemergence, 31 g ai/ha): 0; Wheat plant response rating (0 to 100 scale) [15, 19]: 40; Plant response rating, Barnyardgrass (Flood) [16]: 0; Plant response rating, Ducksalad (Flood) [17]: 0; Plant response rating, Rice (Flood) (rice (Oryza sativa)): 0; Plant response rating, Sedge, Umbrella (Flood) [18]: 0
CCO/N=C(\c1c(O)c(Cl)nn(C)c1=O)c1ccc(F)c2ccccc12 [Compound 212] | 0 | 30 | 40 | 80 | 80 | 100 | 0 | 20 | 10 | 100 | 10 | 100 | 10 | 80 | 50 | 70 | 0 | 0 | 0 | 0 | Foxtail, Giant plant response rating (0 to 100 scale) ([10]; Postemergence, 31 g ai/ha): 50; Foxtail, Giant plant response rating (0 to 100 scale) [10, 19]: 80; Galium plant response rating (0 to 100 scale) ([11]; Postemergence, 31 g ai/ha): 90; Galium plant response rating (0 to 100 scale) [11, 19]: 100; Kochia plant response rating (0 to 100 scale) (kochia (Bassia scoparia) [12]; Postemergence, 31 g ai/ha): 50; Kochia plant response rating (0 to 100 scale) (kochia (Bassia scoparia) [12]; [19]): 50; Pigweed plant response rating (0 to 100 scale) ([13]; Postemergence, 31 g ai/ha): 50; Pigweed plant response rating (0 to 100 scale) [13, 19]: 90; Ragweed plant response rating (0 to 100 scale) ([14]; Postemergence, 31 g ai/ha): 100; Ragweed plant response rating (0 to 100 scale) [14, 19]: 90; Wheat plant response rating (0 to 100 scale) ([15]; Postemergence, 31 g ai/ha): 0; Wheat plant response rating (0 to 100 scale) [15, 19]: 0; Plant response rating, Barnyardgrass (Flood) [16]: 20; Plant response rating, Ducksalad (Flood) [17]: 60; Plant response rating, Rice (Flood) (rice (Oryza sativa)): 0; Plant response rating, Sedge, Umbrella (Flood) [18]: 65
CON=C(c1cc(Cl)cc(Cl)c1Cl)c1c(O)c(C)nn(C)c1=O [Compound 213] | 70 | 100 | 70 | 90 | 60 | 80 | 20 | 80 | 100 | 100 | 70 | 100 | 90 | 100 | 80 | 80 | 30 | 80 | 20 | 40 | Foxtail, Giant plant response rating (0 to 100 scale) ([10]; Postemergence, 31 g ai/ha): 70; Foxtail, Giant plant response rating (0 to 100 scale) [10, 19]: 80; Galium plant response rating (0 to 100 scale) ([11]; Postemergence, 31 g ai/ha): 90; Galium plant response rating (0 to 100 scale) [11, 19]: 90; Kochia plant response rating (0 to 100 scale) (kochia (Bassia scoparia) [12]; Postemergence, 31 g ai/ha): 60; Kochia plant response rating (0 to 100 scale) (kochia (Bassia scoparia) [12]; [19]): 70; Pigweed plant response rating (0 to 100 scale) ([13]; Postemergence, 31 g ai/ha): 80; Pigweed plant response rating (0 to 100 scale) [13, 19]: 90; Ragweed plant response rating (0 to 100 scale) ([14]; Postemergence, 31 g ai/ha): 70; Ragweed plant response rating (0 to 100 scale) [14, 19]: 80; Wheat plant response rating (0 to 100 scale) ([15]; Postemergence, 31 g ai/ha): 40; Wheat plant response rating (0 to 100 scale) [15, 19]: 60; Plant response rating, Barnyardgrass (Flood) [16]: 70; Plant response rating, Ducksalad (Flood) [17]: 70; Plant response rating, Rice (Flood) (rice (Oryza sativa)): 40; Plant response rating, Sedge, Umbrella (Flood) [18]: 90
CON=C(c1cc(Cl)cc(Cl)c1Cl)c1c(O)c(C)nn(C)c1=O [Compound 214] | 90 | 100 | 70 | 90 | 80 | 100 | 20 | 70 | 80 | 100 | 20 | 100 | 80 | 100 | 70 | 80 | 30 | 80 | 30 | 40 | Foxtail, Giant plant response rating (0 to 100 scale) ([10]; Postemergence, 31 g ai/ha): 80; Foxtail, Giant plant response rating (0 to 100 scale) [10, 19]: 80; Galium plant response rating (0 to 100 scale) ([11]; Postemergence, 31 g ai/ha): 90; Galium plant response rating (0 to 100 scale) [11, 19]: 90; Kochia plant response rating (0 to 100 scale) (kochia (Bassia scoparia) [12]; Postemergence, 31 g ai/ha): 70; Kochia plant response rating (0 to 100 scale) (kochia (Bassia scoparia) [12]; [19]): 80; Pigweed plant response rating (0 to 100 scale) ([13]; Postemergence, 31 g ai/ha): 80; Pigweed plant response rating (0 to 100 scale) [13, 19]: 90; Ragweed plant response rating (0 to 100 scale) ([14]; Postemergence, 31 g ai/ha): 80; Ragweed plant response rating (0 to 100 scale) [14, 19]: 90; Wheat plant response rating (0 to 100 scale) ([15]; Postemergence, 31 g ai/ha): 40; Wheat plant response rating (0 to 100 scale) [15, 19]: 70; Plant response rating, Barnyardgrass (Flood) [16]: 70; Plant response rating, Ducksalad (Flood) [17]: 70; Plant response rating, Rice (Flood) (rice (Oryza sativa)): 45; Plant response rating, Sedge, Umbrella (Flood) [18]: 70
